# Experimental data as given in patent US12202835B2, “Substituted aromatic ring-linked dioxinoquinazolines and dioxinoquinolines as kinase inhibitors” (BEIJING SCITECH-MQ PHARMACEUTICALS LIMITED, priority 2018, dated 2025).
# Like-named read-outs stand apart in the source and are kept apart here.
# Tests used:
# VEGFR-2 kinase = VEGFR-2 kinase (Homo sapiens (Human), UniProt P35968); assay: Assay of small molecular compounds for inhibiting the activity of VEGFR-2 kinase (LANCE TR-FRET); assay type: biochemical; conditions: read-out: VEGFR2 IC50
# Chain of VEGFR-2 kinase (P35968 20-1356): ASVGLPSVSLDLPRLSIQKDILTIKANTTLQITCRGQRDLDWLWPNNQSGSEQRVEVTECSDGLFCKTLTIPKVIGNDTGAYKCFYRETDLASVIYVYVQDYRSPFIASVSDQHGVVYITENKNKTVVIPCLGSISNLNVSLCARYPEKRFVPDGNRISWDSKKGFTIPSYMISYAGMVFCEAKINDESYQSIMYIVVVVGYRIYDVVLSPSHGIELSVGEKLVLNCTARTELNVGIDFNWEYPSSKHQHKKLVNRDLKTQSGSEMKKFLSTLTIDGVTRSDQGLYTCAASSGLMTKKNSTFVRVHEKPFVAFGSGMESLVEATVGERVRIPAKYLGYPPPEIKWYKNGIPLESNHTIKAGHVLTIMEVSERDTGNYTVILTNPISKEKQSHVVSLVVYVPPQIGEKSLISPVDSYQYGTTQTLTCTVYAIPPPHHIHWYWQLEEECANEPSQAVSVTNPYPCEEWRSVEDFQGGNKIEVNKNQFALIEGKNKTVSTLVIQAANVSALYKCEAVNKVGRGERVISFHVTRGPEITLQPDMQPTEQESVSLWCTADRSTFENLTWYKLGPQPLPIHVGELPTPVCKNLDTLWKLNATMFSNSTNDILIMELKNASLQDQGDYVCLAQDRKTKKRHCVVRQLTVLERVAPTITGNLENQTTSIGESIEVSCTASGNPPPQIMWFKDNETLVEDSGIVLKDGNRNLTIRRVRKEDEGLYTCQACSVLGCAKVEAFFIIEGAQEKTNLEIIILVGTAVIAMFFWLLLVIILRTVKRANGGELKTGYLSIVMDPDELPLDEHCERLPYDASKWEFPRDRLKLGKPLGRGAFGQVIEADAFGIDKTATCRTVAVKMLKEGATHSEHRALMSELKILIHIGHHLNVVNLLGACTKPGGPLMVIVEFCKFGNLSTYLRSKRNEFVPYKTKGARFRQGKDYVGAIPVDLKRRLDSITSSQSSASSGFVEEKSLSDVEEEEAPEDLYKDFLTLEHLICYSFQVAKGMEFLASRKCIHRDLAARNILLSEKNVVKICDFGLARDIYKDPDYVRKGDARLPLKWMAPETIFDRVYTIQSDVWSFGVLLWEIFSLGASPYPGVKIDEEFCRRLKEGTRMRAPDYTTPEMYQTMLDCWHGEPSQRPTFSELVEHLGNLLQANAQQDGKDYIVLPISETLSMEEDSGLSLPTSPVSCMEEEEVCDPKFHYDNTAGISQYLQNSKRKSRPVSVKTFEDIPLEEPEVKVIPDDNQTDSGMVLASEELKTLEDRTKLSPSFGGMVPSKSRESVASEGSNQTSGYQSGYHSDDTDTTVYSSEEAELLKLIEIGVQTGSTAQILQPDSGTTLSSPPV
# Outline: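 LANCE TR-FRET with human VEGFR-2 (2× stock 0.5 nM) preincubated 30 min with compound (final 2500 to 0.042 nM, 11-point 3-fold), then ULight-JAK-1 (Tyr1023) peptide/ATP added (4× stocks 200 nM/40 μM). Reaction 60 min room temperature, 4% DMSO; IC50 from inhibition-rate curve.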
# MHCC97H cells = assay: Assay for inhibiting the proliferation of MHCC97H cells (CCK-8); assay type: cell-based
# Protocol: In particular, the method of the assay of small molecular compounds for inhibiting cell proliferation is as follows: • 1. Cells cultured to a logarithmic growth phase (adherent cells need to be digested with trypsin and neutralized) were taken, pipetted evenly, transferred to a 15 mL centrifuge tube, and centrifuged at 1000 rpm at room temperature for 4 minutes; • 2. The supernatant was discarded; 5 mL of complete medium was added and pipetted evenly; 10 μL of cell suspension was taken out, mixed well with 10 μL of 0.4% trypan blue, and counted under a cell counter; the proportion of living cells was ensured to be above 90%; • 3. 80 μL of cell suspension per well was seeded into a 96-well plate according to the conditions shown in the attached table, and cultured overnight; in the outer 36 wells of the 96-well plate, no cells were added but only sterile water was added; only the inner 60 wells were used for cell assay and control; • 4. 5×compound dilution: the compounds were serially diluted 3-fold to obtain a total of 9 concentrations; 80-fold overall dilution was completed with complete medium, the resulting concentration was 5 times the final drug concentration, and DMSO concentration was 1.25%; • 5. 20 μL of the corresponding compounds with different concentration gradients were added to each well of assay wells of the 96-well plate; 20 μL of complete medium was added to positive and negative control wells and shaken well; and the final concentration of DMSO in each well was 0.25%; • 6. After 72 hours of incubation, 10 μL of CCK-8 reagent was added to each well and further incubated at 37° C. for 1-2 hours; and the OD value was read at 450 nm; • 7. Cell survival rate (%)=[(As−Ab)/(Ac−Ab)]*100% • As: Assay well (medium containing cells, CCK-8, compound), • Ac: Control well (medium containing cells, CCK-8), • Ab: Blank well (CCK-8, medium without cell and compound), • 8. The values were imported into Graphpad Prism 5 software for IC50 calculation.
# MER kinase = MER kinase (Homo sapiens (Human), UniProt Q12866); assay: Assay of small molecular compounds for inhibiting the activity of MER kinase (LANCE TR-FRET); assay type: biochemical
# Chain of MER kinase (Q12866 21-999): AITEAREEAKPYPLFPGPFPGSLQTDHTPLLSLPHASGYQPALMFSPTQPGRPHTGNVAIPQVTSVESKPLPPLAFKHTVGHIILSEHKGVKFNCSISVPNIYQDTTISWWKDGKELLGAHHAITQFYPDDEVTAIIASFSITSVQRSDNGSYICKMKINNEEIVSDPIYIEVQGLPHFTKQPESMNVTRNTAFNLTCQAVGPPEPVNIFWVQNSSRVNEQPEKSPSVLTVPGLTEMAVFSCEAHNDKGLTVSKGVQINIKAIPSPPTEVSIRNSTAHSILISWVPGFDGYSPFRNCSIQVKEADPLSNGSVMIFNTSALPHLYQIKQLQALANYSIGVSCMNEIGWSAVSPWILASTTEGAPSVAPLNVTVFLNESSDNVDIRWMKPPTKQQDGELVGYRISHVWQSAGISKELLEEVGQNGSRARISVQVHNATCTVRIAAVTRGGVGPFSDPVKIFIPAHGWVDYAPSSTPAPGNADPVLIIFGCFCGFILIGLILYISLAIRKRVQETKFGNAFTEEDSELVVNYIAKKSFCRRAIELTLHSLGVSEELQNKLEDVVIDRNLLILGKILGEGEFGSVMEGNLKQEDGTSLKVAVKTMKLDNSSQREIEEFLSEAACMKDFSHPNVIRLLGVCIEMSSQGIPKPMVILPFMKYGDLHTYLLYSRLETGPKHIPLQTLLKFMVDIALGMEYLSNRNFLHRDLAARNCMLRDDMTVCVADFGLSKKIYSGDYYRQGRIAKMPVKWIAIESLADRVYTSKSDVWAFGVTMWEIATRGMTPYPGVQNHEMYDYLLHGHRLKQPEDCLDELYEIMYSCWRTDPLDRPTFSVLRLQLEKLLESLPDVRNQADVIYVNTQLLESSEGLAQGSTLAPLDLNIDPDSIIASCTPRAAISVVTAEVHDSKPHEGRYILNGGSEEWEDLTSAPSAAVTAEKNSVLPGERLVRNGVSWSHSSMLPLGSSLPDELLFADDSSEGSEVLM
# Outline: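 MER kinase preincubated 5 min at RT with compound (11 points, 0.042-2500 nM final), then ULight-poly GT and ATP added (4× stocks 200 nM and 20 μM) for 60 min at RT, 1% DMSO. Phosphorylation detected by LANCE TR-FRET; IC50 from % inhibition versus controls.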
Structure (SMILES),IC50 (VEGFR-2 kinase),IC50 (MER kinase),IC50 (MHCC97H cells; Homo sapiens),IC50 (MHCC97H cells)
"COc1cc2nccc(Oc3ccc(NC(=O)c4cccn(-c5ccc(F)cc5)c4=O)cc3F)c2c2c1OCCO2 [Example 17, N-(3-fluoro-4-((5-methoxy-2,3-dihydro-[1,4]dioxino[2,3-f]quinolin-10-yl)oxy)phenyl)-1-(4-fluorophenyl)-2-oxo-1,2-dihydropyridine-3-carboxamide]",≤ 50 nM,≤ 50 nM,≤ 50 nM,–
"COc1cn(-c2ccc(F)cc2C)nc1C(=O)Nc1ccc(Oc2ccnc3cc(OCCCN4CCOCC4)c4c(c23)OCCO4)c(F)c1 [Example 27, 1-(4-fluoro-2-methylphenyl)-N-(3-fluoro-4-((5-(3-morpholinopropoxy)-2,3-dihydro-[1,4]dioxino[2,3-f]quinolin-10-yl)oxy)phenyl)-4-methoxy-1H-pyrazole-3-carboxamide]",≤ 50 nM,≤ 50 nM,50 to 200 nM,–
"COc1ccn(-c2ccc(F)cc2)c(=O)c1C(=O)Nc1ccc(Oc2ccnc3cc(OCCCN4CCCCC4)c4c(c23)OCCO4)c(F)c1 [Example 32, N-(3-fluoro-4-((5-(3-(piperidin-1-yl)propoxy)-2,3-dihydro-[1,4]dioxino[2,3-f]quinolin-10-yl)oxy)phenyl)-1-(4-fluorophenyl)-4-methoxy-2-oxo-1,2-dihydropyridine-3-carboxamide]",≤ 50 nM,≤ 50 nM,50 to 200 nM,–
"CCOc1ccn(-c2ccc(F)cc2)c(=O)c1C(=O)Nc1ccc(Oc2ccnc3cc(OCCCN4CCCCC4)c4c(c23)OCCO4)c(F)c1 [Example 33, N-(3-fluoro-4-((5-(3-(piperidin-1-yl)propoxy)-2,3-dihydro-[1,4]dioxino[2,3-f]quinolin-10-yl)oxy)phenyl)-1-(4-fluorophenyl)-4-ethoxy-2-oxo-1,2-dihydropyridine-3-carboxamide]",≤ 50 nM,≤ 50 nM,≤ 50 nM,–
"COc1cc2nccc(Oc3ccc(NC(=O)c4c(OC)ccn(-c5ccc(F)cc5)c4=O)cc3F)c2c2c1OCCO2 [Example 18, N-(3-fluoro-4-((5-methoxy-2,3-dihydro-[1,4]dioxino[2,3-f]quinolin-10-yl)oxy)phenyl)-1-(4-fluorophenyl)-4-methoxy-2-oxo-1,2-dihydropyridine-3-carboxamide]",≤ 50 nM,≤ 50 nM,≤ 50 nM,–
"CCOc1ccn(-c2ccc(F)cc2)c(=O)c1C(=O)Nc1ccc(Oc2ccnc3cc(OC)c4c(c23)OCCO4)c(F)c1 [Example 19, N-(3-fluoro-4-((5-methoxy-2,3-dihydro-[1,4]dioxino[2,3-f]quinolin-10-yl)oxy)phenyl)-1-(4-fluorophenyl)-4-ethoxy-2-oxo-1,2-dihydropyridine-3-carboxamide]",≤ 50 nM,≤ 50 nM,≤ 50 nM,–
"O=C(Nc1ccc(Oc2ncnc3cc(OCCCN4CCOCC4)c4c(c23)OCCO4)c(F)c1)c1cccn(-c2ccc(F)cc2)c1=O [Example 4, N-(3-fluoro-4-((5-(3-morpholinopropoxy)-2,3-dihydro-[1,4]dioxino[2,3-f]quinazolin-10-yl)oxy)phenyl)-1-(4-fluorophenyl)-2-oxo-1,2-dihydropyridine-3-carboxamide]",≤ 50 nM,≤ 50 nM,≤ 50 nM,–
"O=C(Nc1ccc(Oc2ccnc3cc(OCCCN4CCCCC4)c4c(c23)OCCO4)c(F)c1)c1cccn(-c2ccc(F)cc2)c1=O [Example 31, N-(3-fluoro-4-((5-(3-(piperidin-1-yl)propoxy)-2,3-dihydro-[1,4]dioxino[2,3-f]quinolin-10-yl)oxy)phenyl)-1-(4-fluorophenyl)-2-oxo-1,2-dihydropyridine-3-carboxamide]",≤ 50 nM,≤ 50 nM,–,≤ 50 nM
"COCCOc1cc2nccc(Oc3ccc(NC(=O)c4cccn(-c5ccc(F)cc5)c4=O)cc3F)c2c2c1OCCO2 [Example 34, N-(3-fluoro-4-((5-(2-methoxyethoxy)-2,3-dihydro-[1,4]dioxino[2,3-f]quinolin-10-yl)oxy)phenyl)-1-(4-fluorophenyl)-2-oxo-1,2-dihydropyridine-3-carboxamide]",≤ 50 nM,≤ 50 nM,≤ 50 nM,–
"COc1ccn(-c2ccc(F)cc2)c(=O)c1C(=O)Nc1ccc(Oc2ccnc3cc(OCCCN4CCOCC4)c4c(c23)OCCO4)c(F)c1 [Example 21, N-(3-fluoro-4-((5-(3-morpholinopropoxy)-2,3-dihydro-[1,4]dioxino[2,3-f]quinolin-10-yl)oxy)phenyl)-1-(4-fluorophenyl)-4-methoxy-2-oxo-1,2-dihydropyridine-3-carboxamide]",≤ 50 nM,≤ 50 nM,≤ 50 nM,–

# Further lines, with some results ahead:
IC50 (VEGFR-2 kinase),IC50 (MER kinase),Structure (SMILES),IC50 (MHCC97H cells; Homo sapiens),IC50 (MHCC97H cells)
50 to 500 nM,≤ 50 nM,"CCOc1ccn(-c2cccc(F)c2)c(=O)c1C(=O)Nc1ccc(Oc2ccnc3cc(OC)c4c(c23)OCCO4)c(F)c1 [Example 114, N-(3-fluoro-4-((5-methoxy-2,3-dihydro-[1,4]dioxino[2,3-f]quinolin-10-yl)oxy)phenyl)-2-oxo-4-ethoxy-1-(3-fluorophenyl)-1,2-dihydropyridin-3-carboxamide]",50 to 200 nM,–
50 to 500 nM,≤ 50 nM,"CCOc1ccn(-c2ccc(C)cc2)c(=O)c1C(=O)Nc1ccc(Oc2ccnc3cc(OC)c4c(c23)OCCO4)c(F)c1 [Example 112, N-(3-fluoro-4-((5-methoxy-2,3-dihydro-[1,4]dioxino[2,3-f]quinolin-10-yl)oxy)phenyl)-2-oxo-4-ethoxy-1-(4-methylphenyl)-1,2-dihydropyridin-3-carboxamide]",200 to 1000 nM,–
500 to 5000 nM,≤ 50 nM,"COc1cc2nccc(Oc3ccc(NC(=O)c4cn(CCCO)c(=O)n(-c5ccc(F)cc5)c4=O)cc3F)c2c2c1OCCO2 [Example 99, N-(3-fluoro-4-((5-methoxy-2,3-dihydro-[1,4]dioxino[2,3-f]quinolin-10-yl)oxy)phenyl)-3-(4-fluorophenyl)-1-(3-hydroxypropyl)-2,4-dioxo-1,2,3,4-tetrahydropyrimidine-5-carboxamide]",50 to 200 nM,–
500 to 5000 nM,≤ 50 nM,"CCOc1ccn(-c2ccc(F)cc2)c(=O)c1C(=O)Nc1cc(F)c(Oc2ccnc3cc(OC)c4c(c23)OCCO4)cc1Cl [Example 115, N-(2-chloro-5-fluoro-4-((5-methoxy-2,3-dihydro-[1,4]dioxino[2,3-f]quinolin-10-yl)oxy)phenyl)-4-ethoxy-2-oxo-1-(4-fluorophenyl)-1,2-dihydropyridin-3-carboxamide]",≤ 50 nM,–
≤ 50 nM,≤ 50 nM,"COCCOc1cc2nccc(Oc3ccc(NC(=O)c4c(OC)ccn(-c5ccc(F)cc5)c4=O)cc3F)c2c2c1OCCO2 [Example 35, N-(3-fluoro-4-((5-(2-methoxyethoxy)-2,3-dihydro-[1,4]dioxino[2,3-f]quinolin-10-yl)oxy)phenyl)-1-(4-fluorophenyl)-4-methoxy-2-oxo-1,2-dihydropyridine-3-carboxamide]",≤ 50 nM,–
50 to 500 nM,≤ 50 nM,"CCOc1ccn(-c2ccc(Cl)cc2)c(=O)c1C(=O)Nc1ccc(Oc2ccnc3cc(OC)c4c(c23)OCCO4)c(F)c1 [Example 113, N-(3-fluoro-4-((5-methoxy-2,3-dihydro-[1,4]dioxino[2,3-f]quinolin-10-yl)oxy)phenyl)-2-oxo-4-ethoxy-1-(4-chlorophenyl)-1,2-dihydropyridin-3-carboxamide]",50 to 200 nM,–
500 to 5000 nM,≤ 50 nM,"CCOc1ccn(-c2ccc(F)cc2)c(=O)c1C(=O)Nc1ccc(Oc2ccnc3ccc4c(c23)OCCO4)cc1F [Example 171, N-(4-((2,3-dihydro-[1,4]dioxino[2,3-f]quinolin-10-yl)oxy)-2-fluorophenyl)-1-(4-fluorophenyl)-4-ethoxy-2-oxo-1,2-dihydropyridine-3-carboxamide]",–,–
50 to 500 nM,≤ 50 nM,"COc1ccn(-c2ccc(F)cc2)c(=O)c1C(=O)Nc1ccc(Oc2ccnc3cc(OCCCN4CCCCC4)c4c(c23)OCCO4)cc1Cl [Example 136, N-(2-chloro-4-((5-((3-piperidin-1-yl)propoxy)-2,3-dihydro-[1,4]dioxino[2,3-f]quinolin-10-yl)oxy)phenyl)-1-(4-fluorophenyl)-4-methoxy-2-oxo-1,2-dihydropyridine-3-carboxamide]",–,–
